The subject of the experiment is Splenic lymphocytes. As to the kind of experiment: Lymphocyte proliferation test (XTT). Format: cell-based, mice. The method, then:
Splenic lymphocytes were split into 96-well plates at an initial density of 2×10^4 cells per well and were incubated with different doses of inosine under control, 40 μg/ml of LPS or 10 μg/ml of PHA condition, respectively. After 96 h, cell viability was measured by TACS XTT cell proliferation assay kit (Trevigen, Inc. Gaithersburg, Md.).
(In general: Tetrazolium assays rely on reduction of a dye to a coloured formazan, in cell work by metabolically active cells.)

From US11602551B2, “Use of inosine for the treatment of t-reg deficiency” (BioGaia AB, priority 2016, dated 2023) come the findings set out here.

In the case of `O=c1[nH]cnc2c1ncn2[C@@H]1O[C@H](CO)[C@@H](O)[C@H]1O` [inosine], the “proliferation of PHA-stimulated T-lymphocytes” value (96 h treatment, 10 μg/ml of PHA) is listed as “does not inhibit”. Besides, the “proliferation of LPS-stimulated B-lymphocytes” value (96 h treatment, 40 μg/ml of LPS) was “does not inhibit”. In addition, the “proliferation of lymphocytes in vitro” value (different doses of inosine, 96 h) is given as “did not inhibit”.
